Measurements taken from patent publication US10065990B2, “Cyclic peptide compound, and preparation method, pharmaceutical composition and use thereof” (HANGZHOU GUANYU BIO-MEDICAL CO., LTD, priority 2013, dated 2018).
Like-named read-outs stand apart in the source and are kept apart here.

Columns and labels:
HDAC7 = molecular target: T1, HDAC7 (Homo sapiens, UniProt Q8WUI4); assay: HDAC biochemical activity measurement (fluorescent substrate deacetylation);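 also: fluorogenic deacetylation assay using acetyl-lysine substrate at 20 µM, enzyme and compound incubated 30 min at 37 °C, then developer added, fluorescence read at 360/460 nm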; details: HDAC7; 37° C. 30 minutes
T1 sequence (Q8WUI4 1-952): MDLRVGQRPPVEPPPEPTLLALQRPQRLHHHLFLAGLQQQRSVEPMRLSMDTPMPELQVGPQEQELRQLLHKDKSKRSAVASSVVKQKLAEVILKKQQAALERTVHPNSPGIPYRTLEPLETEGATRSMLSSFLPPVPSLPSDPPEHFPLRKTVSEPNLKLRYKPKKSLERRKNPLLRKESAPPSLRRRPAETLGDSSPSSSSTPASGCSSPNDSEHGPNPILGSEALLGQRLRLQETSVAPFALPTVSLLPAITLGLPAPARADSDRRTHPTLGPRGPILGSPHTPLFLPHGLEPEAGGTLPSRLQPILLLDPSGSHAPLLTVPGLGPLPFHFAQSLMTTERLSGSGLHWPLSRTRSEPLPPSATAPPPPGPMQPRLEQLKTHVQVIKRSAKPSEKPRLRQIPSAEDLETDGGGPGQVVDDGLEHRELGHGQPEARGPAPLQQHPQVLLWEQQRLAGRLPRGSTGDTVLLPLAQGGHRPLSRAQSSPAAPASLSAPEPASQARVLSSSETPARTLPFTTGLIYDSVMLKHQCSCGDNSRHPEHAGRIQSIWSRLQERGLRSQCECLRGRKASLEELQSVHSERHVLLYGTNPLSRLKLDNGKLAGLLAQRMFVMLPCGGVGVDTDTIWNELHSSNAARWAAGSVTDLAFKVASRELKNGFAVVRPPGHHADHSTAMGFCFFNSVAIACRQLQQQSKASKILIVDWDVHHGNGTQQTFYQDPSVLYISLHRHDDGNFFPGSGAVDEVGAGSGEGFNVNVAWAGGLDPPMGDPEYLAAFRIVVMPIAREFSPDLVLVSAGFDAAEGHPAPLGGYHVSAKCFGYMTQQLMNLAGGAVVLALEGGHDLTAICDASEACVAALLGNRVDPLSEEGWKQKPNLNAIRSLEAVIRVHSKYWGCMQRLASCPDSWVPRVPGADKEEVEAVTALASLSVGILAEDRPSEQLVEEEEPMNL

[1] = system: A549 (human lung cancer cells); assay: MTT cancer cell growth inhibition; type: cell-based; details: A549 cells, MTT, 72 hours incubation, read-out: GI50 A54
Procedure, shortened: (§1)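 Tumour cells in 10% FBS-supplemented DMEM or RPMI 1640 are plated at 1500 per well, dosed next day with compound (10^−5 through 10^−10 M, final) and kept 72 h. MTT is added for 4 h; dissolved formazan is measured at 570 nm and GI50 determined.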

[2] = system: BGC-823 (human gastric cancer cells); assay: MTT cancer cell growth inhibition; type: cell-based; details: BGC-823 cells, MTT, 72 hours incubation, read-out: GI50 BG
Procedure, shortened: as §1

[3] = system: Bel-7402 (human hepatoma cells); assay: MTT cancer cell growth inhibition; type: cell-based; details: MTT, 72 hours incubation, Bel-7402 cells, read-out: GI50 Bel-7402
Procedure, shortened: as §1

[4] = system: DU145 (human prostate cancer cells); assay: MTT cancer cell growth inhibition; type: cell-based; details: DU145 cells, MTT, 72 hours incubation, read-out: GI50 Du1
Procedure, shortened: as §1

[5] = system: H1975 (non-small cell lung adenocarcinoma); assay: MTT cancer cell growth inhibition; type: cell-based; details: MTT, 72 hours incubation, H1975 cells, read-out: GI50 H1975
Procedure, shortened: as §1

[6] = system: HCC827 (human non-small cell lung cancer cells); assay: MTT cancer cell growth inhibition; type: cell-based; details: MTT, 72 hours incubation, HCC827 cells, read-out: GI50 HCC827
Procedure, shortened: as §1

[7] = system: HT1080 (human fibrosarcoma cells); assay: MTT cancer cell growth inhibition; type: cell-based; details: HT1080 cells, MTT, 72 hours incubation, read-out: GI50 HT1
Procedure, shortened: as §1

[8] = system: Hela (human cervical cancer cells); assay: MTT cancer cell growth inhibition; type: cell-based; details: Hela cells, MTT, 72 hours incubation, read-out: GI50 Hela
Procedure, shortened: as §1

[9] = system: Huh-7 (human hepatoma cells); assay: MTT cancer cell growth inhibition; type: cell-based; details: MTT, 72 hours incubation, Huh-7 cells, read-out: GI50 Huh-7
Procedure, shortened: as §1

[10] = system: K562 (human leukemia cells); assay: MTT cancer cell growth inhibition; type: cell-based; details: MTT, 72 hours incubation, K562 cells, read-out: GI50 K562
Procedure, shortened: as §1

[11] = system: KBM-5 (human chronic myelogenous leukemia); assay: MTT cancer cell growth inhibition; type: cell-based; details: MTT, 72 hours incubation, KBM-5 cells, read-out: GI50 KBM-5
Procedure, shortened: as §1

[12] = system: KBM5-T315I (human chronic myelogenous leukemia); assay: MTT cancer cell growth inhibition; type: cell-based; details: MTT, 72 hours incubation, KBM5-T315I cells, read-out: GI50 KBM5-T315I
Procedure, shortened: as §1

[13] = system: MCF-7 (human breast cancer cells); assay: MTT cancer cell growth inhibition; type: cell-based; details: MCF-7 cells, 72 hours incubation, read-out: GI50 MCF
Procedure, shortened: as §1

[14] = system: MDA-MB-231 (breast cancer cells); assay: MTT cancer cell growth inhibition; type: cell-based
Procedure, shortened: as §1

[15] = system: MOLT-4 (human acute lymphoblastic leukemia cells); assay: MTT cancer cell growth inhibition; type: cell-based; details: MOLT-4 cells, MTT, 72 hours incubation, read-out: GI50 Mol
Procedure, shortened: as §1

[16] = system: N-87 (human gastric cancer cells); assay: MTT cancer cell growth inhibition; type: cell-based; details: MTT, 72 hours incubation, N-87 cells, read-out: GI50 N-87
Procedure, shortened: as §1

[17] = system: PANC-1 (Pac-1, human pancreatic cancer cells); assay: MTT cancer cell growth inhibition; type: cell-based; details: PANC-1 cells, MTT, 72 hours incubation, read-out: GI50 PAN
Procedure, shortened: as §1

[18] = system: SGC-7901 (human gastric cancer cells); assay: MTT cancer cell growth inhibition; type: cell-based; details: MTT, 72 hours incubation, SGC-7901 cells, read-out: GI50 SGC-7901
Procedure, shortened: as §1

[19] = system: U937 (human leukemia cells); assay: MTT cancer cell growth inhibition; type: cell-based; details: U937 cells, MTT, 72 hours incubation, read-out: GI50 U93
Procedure, shortened: as §1

[20] = system: lncap (prostate cancer cells); assay: MTT cancer cell growth inhibition; type: cell-based; details: lncap cells, MTT, 72 hours incubation, read-out: GI50 lnca
Procedure, shortened: as §1

[21] = Homo sapiens, MDA-MB-231, 72 h, read-out: GI50 MDA-MB-231, MTT, 72 hours incubation, MDA-MB-231 cells

C/C=C1\NC(=O)c2ccc(SC)c(n2)CNC(=O)C[C@@H](/C=C/CCSC(C)=O)OC(=O)[C@H](C(C)C)NC1=O [Compound 209]
IC50 HDAC7 (HDAC7): no activity
GI50 [1]: 20 nM
GI50 [2]: 40 nM
GI50 [3]: 13 nM
GI50 [4]: 70 nM
GI50 [5]: 17 nM
GI50 [6]: 85 nM
GI50 [7]: 30 nM
GI50 [8]: 90 nM
GI50 [9]: 23 nM
GI50 [10]: 39 nM
GI50 [11]: 46 nM
GI50 [12]: 31 nM
GI50 [13]: 20 nM
GI50 ([14]; read-out: GI50 MDA-MB-231, MTT, 72 hours incubation, MDA-MB-231 cells): 35 nM
GI50 [15]: 70 nM
GI50 [16]: 51 nM
GI50 [17]: 20 nM
GI50 [18]: 41 nM
GI50 [19]: 30 nM
GI50 [20]: 20 nM

C=C1NC(=O)c2nc(ccc2SC)CNC(=O)C[C@@H](/C=C/CCSC(C)=O)OC(=O)[C@H](C)NC1=O [Compound 210]
IC50 HDAC7 (HDAC7): no activity
GI50 ([1]; Homo sapiens, A549, 72 h): 50 nM
GI50 ([2]; Homo sapiens, BGC-823, 72 h): 10 nM
GI50 ([3]; Homo sapiens, Bel-7402, 72 h): 47 nM
GI50 ([4]; Homo sapiens, DU-145, 72 h): 30 nM
GI50 ([5]; Homo sapiens, NCI-H1975, 72 h): 25 nM
GI50 ([6]; Homo sapiens, HCC827, 72 h): 56 nM
GI50 ([7]; Homo sapiens, HT-1080, 72 h): 20 nM
GI50 ([8]; Homo sapiens, HeLa, 72 h): 30 nM
GI50 ([9]; Homo sapiens, Huh-7, 72 h): 22 nM
GI50 ([10]; Homo sapiens, K562, 72 h): 86 nM
GI50 ([11]; Homo sapiens, KBM5, 72 h): 52 nM
GI50 ([12]; Homo sapiens, 72 h): 49 nM
GI50 ([13]; Homo sapiens, MCF7, 72 h): 30 nM
GI50 [14, 21]: 72 nM
GI50 ([15]; Homo sapiens, MOLT-4, 72 h): 50 nM
GI50 ([16]; Homo sapiens, 72 h): 27 nM
GI50 ([17]; Homo sapiens, PANC-1, 72 h): 50 nM
GI50 ([18]; Homo sapiens, SGC-7901, 72 h): 105 nM
GI50 ([19]; Homo sapiens, U-937, 72 h): 20 nM
GI50 ([20]; Homo sapiens, LNCaP, 72 h): 50 nM

C=C1NC(=O)c2cc(SC)cc(n2)CNC(=O)C[C@@H](/C=C/CCSC(C)=O)OC(=O)[C@H](C)NC1=O [Compound 211]
IC50 HDAC7 (HDAC7): no activity
GI50 ([1]; Homo sapiens, A549, 72 h): 40 nM
GI50 ([2]; Homo sapiens, BGC-823, 72 h): 70 nM
GI50 ([3]; Homo sapiens, Bel-7402, 72 h): 21 nM
GI50 ([4]; Homo sapiens, DU-145, 72 h): 60 nM
GI50 ([5]; Homo sapiens, NCI-H1975, 72 h): 73 nM
GI50 ([6]; Homo sapiens, HCC827, 72 h): 55 nM
GI50 ([7]; Homo sapiens, HT-1080, 72 h): 40 nM
GI50 ([8]; Homo sapiens, HeLa, 72 h): 60 nM
GI50 ([9]; Homo sapiens, Huh-7, 72 h): 24 nM
GI50 ([10]; Homo sapiens, K562, 72 h): 19 nM
GI50 ([11]; Homo sapiens, KBM5, 72 h): 31 nM
GI50 ([12]; Homo sapiens, 72 h): 28 nM
GI50 ([13]; Homo sapiens, MCF7, 72 h): 70 nM
GI50 [14, 21]: 85 nM
GI50 ([15]; Homo sapiens, MOLT-4, 72 h): 30 nM
GI50 ([16]; Homo sapiens, 72 h): 31 nM
GI50 ([17]; Homo sapiens, PANC-1, 72 h): 70 nM
GI50 ([18]; Homo sapiens, SGC-7901, 72 h): 71 nM
GI50 ([19]; Homo sapiens, U-937, 72 h): 40 nM
GI50 ([20]; Homo sapiens, LNCaP, 72 h): 30 nM
